Tested on: Pseudomonas syringae pv. tabaci
Experiment: In vitro effect of PP IX and modified PP IX on Pseudomonas syringae pv. tabaci, with and without chelating agent
Assay type: cell-based
Conditions: 10 μM; illumination 1 hour, about 1000 μmol/m^2/s PAR; PBS control 8.7
Method: In this example, control of the gram-negative bacterial plant pathogen Pseudomonas syringae pv. tabaci with PP IX and modified PP IX was assessed, with and without chelating agents. Treatments were prepared in Phosphate Buffered Saline (PBS) in 96 well plates at desired concentrations. A bacterial suspension was inoculated into the PBS and incubated at 28° C. in the dark for 30 minutes. After 30 minutes, the 96 well plate was placed under illumination for 1 hour (at 21° C.). Following illumination, bacterial suspensions were serially diluted and 10 μL of each dilution is spread uniformly on Tryptic Soy Agar (TSA) plates and placed in the dark in an incubator at 28° C. for 48 hours. After 48 hours, bacterial colonies were counted, and the results were log transformed (log colony forming units (CFU)/mL). The relative inactivation was determined by taking the difference between log CFU(PBS control) and log CFU(treatments). Sample Illumination was provided by LED lights (Heliospectra RX30) emitting about 1000 μmol/m^2/s photosynthetically active radiation (PAR).

In the case of “Protoporphyrin IX disodium salt [PP IX disodium salt]”, the “log CFU/ml” value is reported as 7.4 log CFU/ml.
